Experimental data reported in US12180193B2, “Accelerating fibrosarcoma protein degrading compounds and associated methods of use” (Arvinas Operations, Inc., priority 2020, dated 2024).

Columns and labels:
BRAF V600E = biological target: T1, BRAF V600E (Homo sapiens, UniProt P15056, V600E); assay: Cellular assay of target protein degradation, T-Rex 293 cells stably transfected with HA-BRAF_V600E (HA immunofluorescence, high content imaging); format: cell-based; details: T-Rex 293 HA-BRAF V600E; for DC50: half maximal degradation, read-out: BRaf V600E DC50; for Dmax: maximum degradation observed
T1 construct: expressed in transfected cells
How it was run: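 Degradation of the HA-tagged construct is measured after 24 h treatment at 37 °C across 1 μM to 0.1 nM in 0.1% DMSO, in doxycycline-induced (1 ng/mL) cells. DC50 and Dmax come from HA fluorescence imaging.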

BRAF G466V = biological target: T2, BRAF G466V (Homo sapiens, UniProt P15056, G466V); assay: Cellular assay of target protein degradation, T-Rex 293 cells stably transfected with HA-BRAF G466V (HA immunofluorescence, high content imaging); format: cell-based; details: T-Rex 293 HA-BRAF G466V; for DC50: half maximal degradation, read-out: BRaf G466V DC50; for Dmax: maximum degradation observed
T2 construct: expressed in transfected cells
How it was run: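 Dose range spans 30 nM to 3 pM (0.1% DMSO) over 24 hours at 37° C, in cells induced with 0.75 ng/mL doxycycline. Fixed cells are probed with anti-HA antibody overnight at 4° C, then imaged; half-maximal degradation and maximum degradation are derived.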

T1 sequence (P15056 whole entry V600E): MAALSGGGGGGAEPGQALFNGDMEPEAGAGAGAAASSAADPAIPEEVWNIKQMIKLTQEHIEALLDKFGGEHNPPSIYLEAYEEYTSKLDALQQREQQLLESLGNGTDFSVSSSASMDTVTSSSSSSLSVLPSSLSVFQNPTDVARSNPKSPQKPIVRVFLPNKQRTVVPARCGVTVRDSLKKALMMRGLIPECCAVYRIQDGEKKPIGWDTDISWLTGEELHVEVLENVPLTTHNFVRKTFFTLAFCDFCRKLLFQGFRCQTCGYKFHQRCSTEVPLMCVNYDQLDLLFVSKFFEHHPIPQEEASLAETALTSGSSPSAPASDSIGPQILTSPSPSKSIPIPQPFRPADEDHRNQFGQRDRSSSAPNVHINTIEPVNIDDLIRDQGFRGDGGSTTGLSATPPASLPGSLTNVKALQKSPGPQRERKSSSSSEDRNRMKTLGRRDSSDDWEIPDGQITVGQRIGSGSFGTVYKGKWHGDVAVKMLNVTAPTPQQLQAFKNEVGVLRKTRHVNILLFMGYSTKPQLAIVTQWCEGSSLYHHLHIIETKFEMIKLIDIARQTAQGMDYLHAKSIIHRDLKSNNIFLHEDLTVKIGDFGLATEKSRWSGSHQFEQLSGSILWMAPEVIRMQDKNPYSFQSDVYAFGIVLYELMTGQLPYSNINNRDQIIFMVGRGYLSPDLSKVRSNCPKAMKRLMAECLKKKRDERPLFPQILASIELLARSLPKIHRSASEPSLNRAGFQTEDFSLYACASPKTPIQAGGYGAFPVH
T2 sequence (P15056 whole entry G466V): as the sequence (P15056 whole entry V600E) above, with G466V, E600V counted along it

| SMILES | DC50 (BRAF V600E) | Dmax (BRAF V600E) | DC50 (BRAF G466V) | Dmax (BRAF G466V) |
| --- | --- | --- | --- | --- |
| O=C1CCC(N2Cc3cc(N4CCCN(CC5CCN(c6ccc(-c7cnc8[nH]cc(C(=O)c9c(F)ccc(NS(=O)(=O)N%10CC[C@@H](F)C%10)c9F)c8c7)cc6)CC5)CC4)ccc3C2=O)C(=O)N1 (stereo partly drawn) [Compound 324, (3R)-N-[3-(5-{4-[4-({4-[2-(2,6-dioxopiperidin-3-yl)-1-oxo-2,3-dihyrdo-1H-isoindol-5-yl]-1,4-diazepan-1-yl}methyl)piperidin-1-yl]phenyl}-1H-pyrrolo[2,3-b]pyridine-3-carbonyl)-2,4-difluorophenyl]-3-fluoropyrrolidine-1-sulfonamide] | 0.005 to 0.05 µM | < 35% | 0.001 to 0.01 µM | > 70% |
| O=C1CCC(N2Cc3cc(N4CCC(CN5CCN(c6ncc(-c7cnc8[nH]cc(C(=O)c9c(F)ccc(NS(=O)(=O)N%10CC[C@@H](F)C%10)c9F)c8c7)cn6)CC5)CC4)ccc3C2=O)C(=O)N1 (stereo partly drawn) [Compound 18, (3R)-N-[3-(5-{2-[4-({1-[2-(2,6-dioxopiperidin-3-yl)-1-oxo-2,3-dihydro-1H-isoindol-5-yl]piperidin-4-yl}methyl)piperazin-1-yl]pyrimidin-5-yl}-1H-pyrrolo[2,3-b]pyridine-3-carbonyl)-2,4-difluorophenyl]-3-fluoropyrrolidine-1-sulfonamide] | 0.05 to 0.5 µM | > 70% | < 0.001 µM | 35 to 70% |
| O=C1CC[C@H](N2Cc3cc(C4CCN(CC5CCN(c6ccc(-c7cnc8[nH]cc(C(=O)c9c(F)ccc(NS(=O)(=O)N%10CC(O)C%10)c9F)c8c7)cc6)CC5)CC4)ccc3C2=O)C(=O)N1 [Compound 279, N-{3-[5-(4-{4-[(4-{2-[(3S)-2,6-dioxopiperidin-3-yl]-1-oxo-2,3-dihydro-1H-isoindol-5-yl}piperidin-1-yl)methyl]piperidin-1-yl}phenyl)-1H-pyrrolo[2,3-b]pyridine-3-carbonyl]-2,4-difluorophenyl}-3-hydroxyazetidine-1-sulfonamide] | 0.005 to 0.05 µM | < 35% | 0.01 to 0.03 µM | > 70% |
| Nc1ccc(F)c(C(=O)c2c[nH]c3ncc(-c4ccc(N5CCC(CN6CC7(C6)CN(c6ccc(C(=O)N[C@H]8CCC(=O)NC8=O)c(F)c6)C7)CC5)cc4)cc23)c1F [Compound 363, 4-{6-[(1-{4-[3-(3-amino-2,6-difluorobenzoyl)-1H-pyrrolo[2,3-b]pyridin-5-yl]phenyl}piperidin-4-yl)methyl]-2,6-diazaspiro[3.3]heptan-2-yl}-N-[(3S)-2,6-dioxopiperidin-3-yl]-2-fluorobenzamide] | > 0.5 µM |  | > 0.03 µM |  |
| O=C1CC[C@@H](N2Cc3cc(C[C@H](O)CN4CCC(c5ccc(-c6cnc7[nH]cc(C(=O)c8c(F)ccc(NS(=O)(=O)N9CC[C@@H](F)C9)c8F)c7c6)cc5)CC4)ccc3C2=O)C(=O)N1 [Compound 116, (3R)-N-{3-[5-(4-{1-[(2S)-3-{2-[(3R)-2,6-dioxopiperidin-3-yl]-1-oxo-2,3-dihydro-1H-isoindol-5-yl}-2-hydroxypropyl]piperidin-4-yl}phenyl)-1H-pyrrolo[2,3-b]pyridine-3-carbonyl]-2,4-difluorophenyl}-3-fluoropyrrolidine-1-sulfonamide] | 0.005 to 0.05 µM | 35 to 70% | < 0.001 µM | 35 to 70% |
| O=C1CC[C@@H](N2Cc3cc(/C=C/CN4CC5(C4)CN(c4ccc(-c6cnc7[nH]cc(C(=O)c8c(F)ccc(NS(=O)(=O)N9CC[C@@H](F)C9)c8F)c7c6)cc4)C5)ccc3C2=O)C(=O)N1 [Compound 39, (3R)-N-{3-[5-(4-{6-[(2E)-3-{2-[(3R)-2,6-dioxopiperidin-3-yl]-1-oxo-2,3-dihydro-1H-isoindol-5-yl}prop-2-en-1-yl]-2,6-diazaspiro[3.3]heptan-2-yl}phenyl)-1H-pyrrolo[2,3-b]pyridine-3-carbonyl]-2,4-difluorophenyl}-3-fluoropyrrolidine-1-sulfonamide] | 0.005 to 0.05 µM | 35 to 70% | < 0.001 µM | 35 to 70% |
| O=C1CCC(N2Cc3cc(N4CC[C@@H]4COc4ccc(-c5cnc6[nH]cc(C(=O)c7c(F)ccc(NS(=O)(=O)N8CC[C@@H](F)C8)c7F)c6c5)cc4)ccc3C2=O)C(=O)N1 (stereo partly drawn) [Compound 15, (3R)-N-{3-[5-(4-{[(2R)-1-[2-(2,6-dioxopiperidin-3-yl)-1-oxo-2,3-dihydro-1H-isoindol-5-yl]azetidin-2-yl]methoxy}phenyl)-1H-pyrrolo[2,3-b]pyridine-3-carbonyl]-2,4-difluorophenyl}-3-fluoropyrrolidine-1-sulfonamide] | > 0.5 µM |  | > 0.03 µM |  |
| C[C@@]12CN(CC3CCN(c4ccc5c(c4)CN([C@H]4CCC(=O)NC4=O)C5=O)CC3)C[C@@H]1CN(c1ccc(-c3cnc4[nH]cc(C(=O)c5c(F)ccc(NS(=O)(=O)N6CC[C@@H](F)C6)c5F)c4c3)cc1)C2 [Compound 51, (3R)-N-[3-(5-{4-[(3aS,6aR)-5-[(1-{2-[(3S)-2,6-dioxopiperidin-3-yl]-1-oxo-2,3-dihydro-1H-isoindol-5-yl}piperidin-4-yl)methyl]-3a-methyl-octahydropyrrolo[3,4-c]pyrrol-2-yl]phenyl}-1H-pyrrolo[2,3-b]pyridine-3-carbonyl)-2,4-difluorophenyl]-3-fluoropyrrolidine-1-sulfonamide] | 0.05 to 0.5 µM | 35 to 70% | 0.001 to 0.01 µM | 35 to 70% |
| CCc1ccc(NS(=O)(=O)N2CC[C@@H](F)C2)c(F)c1C(=O)c1c[nH]c2ncc(-c3ccc(N4CCC(CN5CCC(c6ccc7c(c6)CN(C6CCC(=O)NC6=O)C7=O)CC5)CC4)cc3)cc12 (stereo partly drawn) [Compound 266, (3R)-N-[3-(5-{4-[4-({4-[2-(2,6-dioxopiperidin-3-yl)-1-oxo-2,3-dihydro-1H-isoindol-5-yl]piperidin-1-yl}methyl)piperidin-1-yl]phenyl}-1H-pyrrolo[2,3-b]pyridine-3-carbonyl)-4-ethyl-2-fluorophenyl]-3-fluoropyrrolidine-1-sulfonamide] | > 0.5 µM |  | > 0.03 µM |  |
| CCCS(=O)(=O)Nc1ccc(F)c(-n2cc(-c3cncnc3)c3nc(N(C)C4CCN(C(=O)CCOCCOCCOCCOCCNc5cccc6c5C(=O)N(C5CCC(=O)NC5=O)C6=O)CC4)ccc32)c1F (stereo not drawn) [Compound 338] | 0.05 to 0.5 µM | 35 to 70% | 0.01 to 0.03 µM | 35 to 70% |
| O=C1CC[C@H](N2Cc3cc(N4CCC(CN5CCN(C6(c7ccc(-c8cnc9[nH]cc(C(=O)c%10c(F)ccc(NS(=O)(=O)N%11CC[C@@H](F)C%11)c%10F)c9c8)cn7)CC6)CC5)CC4)ccc3C2=O)C(=O)N1 [Compound 288, (3R)-N-(3-{5-[6-(1-{4-[(1-{2-[(3S)-2,6-dioxopiperidin-3-yl]-1-oxo-2,3-dihydro-1H-isoindol-5-yl}piperidin-4-yl)methyl]piperazin-1-yl}cyclopropyl)pyridin-3-yl]-1H-pyrrolo[2,3-b]pyridine-3-carbonyl}-2,4-difluorophenyl)-3-fluoropyrrolidine-1-sulfonamide] | 0.05 to 0.5 µM | 35 to 70% | > 0.03 µM | > 70% |
| O=C1CCC(N2Cc3cc(C4CCN(CCCc5ccc(-c6cnc7[nH]cc(C(=O)c8c(F)ccc(NS(=O)(=O)N9CC[C@@H](F)C9)c8F)c7c6)cc5)CC4)ccc3C2=O)C(=O)N1 (stereo partly drawn) [Compound 49, (3R)-N-(3-{5-[4-(3-{4-[2-(2,6-dioxopiperidin-3-yl)-1-oxo-2,3-dihydro-1H-isoindol-5-yl]piperidin-1-yl}propyl)phenyl]-1H-pyrrolo[2,3-b]pyridine-3-carbonyl}-2,4-difluorophenyl)-3-fluoropyrrolidine-1-sulfonamide] | 0.005 to 0.05 µM | 35 to 70% | < 0.001 µM | 35 to 70% |
| COc1cc(N2CC3(CN(CC4CCN(c5ccc(-c6cnc7[nH]cc(C(=O)c8c(F)ccc(NS(=O)(=O)N9CC[C@@H](F)C9)c8F)c7c6)cc5)CC4)C3)C2)cc2c1C(=O)N([C@H]1CCC(=O)NC1=O)C2 [Compound 249, (3R)-N-{3-[5-(4-{4-[(6-{2-[(3S)-2,6-dioxopiperidin-3-yl]-7-methoxy-1-oxo-2,3-dihydro-1H-isoindol-5-yl}-2,6-diazaspiro[3.3]heptan-2-yl)methyl]piperidin-1-yl}phenyl)-1H-pyrrolo [2,3-b]pyridine-3-carbonyl]-2,4-difluorophenyl}-3-fluoropyrrolidine-1-sulfonamide] | 0.005 to 0.05 µM | 35 to 70% | 0.001 to 0.01 µM | > 70% |
| O=C1CCC(N2Cc3cc(N4CCC(C5CCN(c6ccc(-c7cnc8[nH]cc(C(=O)c9c(F)ccc(NS(=O)(=O)N%10CC[C@@H](F)C%10)c9F)c8c7)cc6)CC5)CC4)ccc3C2=O)C(=O)N1 (stereo partly drawn) [Compound 214, (3R)-N-{3-[5-(4-{1′-[2-(2,6-dioxopiperidin-3-yl)-1-oxo-2,3-dihydro-1H-isoindol-5-yl]-[4,4′-bipiperidin]-1-yl}phenyl)-1H-pyrrolo[2,3-b]pyridine-3-carbonyl]-2,4-difluorophenyl}-3-fluoropyrrolidine-1-sulfonamide] | 0.005 to 0.05 µM | < 35% | 0.001 to 0.01 µM | 35 to 70% |
| CN(CC(F)F)S(=O)(=O)Nc1ccc(F)c(C(=O)c2c[nH]c3ncc(-c4ccc(N5CCC(CN6CCC(c7ccc8c(c7)CN(C7CCC(=O)NC7=O)C8=O)CC6)CC5)cc4)cc23)c1F (stereo not drawn) [Compound 213, 3-(5-{1-[(1-{4-[3-(3-{[(2,2-difluoroethyl)(methyl)sulfamoyl]amino}-2,6-difluorobenzoyl)-1H-pyrrolo[2,3-b]pyridin-5-yl]phenyl}piperidin-4-yl)methyl]piperidin-4-yl}-1-oxo-2,3-dihydro-1H-isoindol-2-yl) piperidine-2,6-dione] | 0.005 to 0.05 µM | 35 to 70% | 0.001 to 0.01 µM | > 70% |
